Data on two molecules can be found in patent US20060134794A1, “Method of detecting the presence and/or progression of cancer” (priority 2004, published 2006).

Assay [1] addresses T1, recombinant form of tNOX (nus tNOX) (Homo sapiens, UniProt Q16206).
T1 construct: nus tag
T1 sequence (Q16206 1-610): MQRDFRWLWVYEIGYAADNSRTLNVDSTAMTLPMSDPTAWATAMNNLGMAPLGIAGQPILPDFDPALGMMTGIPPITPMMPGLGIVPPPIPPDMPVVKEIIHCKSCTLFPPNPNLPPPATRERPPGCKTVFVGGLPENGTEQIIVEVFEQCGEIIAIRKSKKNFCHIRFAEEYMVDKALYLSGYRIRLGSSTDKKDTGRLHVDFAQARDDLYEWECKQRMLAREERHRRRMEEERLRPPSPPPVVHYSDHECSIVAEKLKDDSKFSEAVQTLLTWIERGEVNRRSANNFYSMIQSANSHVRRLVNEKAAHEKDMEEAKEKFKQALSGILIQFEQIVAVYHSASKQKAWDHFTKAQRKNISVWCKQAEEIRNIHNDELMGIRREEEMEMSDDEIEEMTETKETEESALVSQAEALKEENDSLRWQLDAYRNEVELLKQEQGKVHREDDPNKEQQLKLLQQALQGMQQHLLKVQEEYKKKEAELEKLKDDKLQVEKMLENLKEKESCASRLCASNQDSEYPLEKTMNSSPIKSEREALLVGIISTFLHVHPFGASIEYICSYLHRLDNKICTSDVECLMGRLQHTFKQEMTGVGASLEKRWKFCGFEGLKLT
Description: standard NOX assay (oxidation of NADH, decrease in A340) with recombinant tNOX. In kind it is biochemical. The following applies: 100 μM AgO in 1.7% phosphoric acid added after 45 minutes; 25° C. How it is done:
In panel A, an equivalent amount of phosphoric acid was added. The assay measured oxidation of NADH (decrease in A340) in a standard NOX assay at 25° C.
(§1) Spectrophotometric assay of NADH Oxidase. NAD(P)H oxidase activities were measured using paired Hitachi U3210 spectrophotometers over successive 5-minutes intervals (two to four or more at low inhibitory concentrations) at 37° C. The activity was determined as the disappearance of NAD(P)H measured at 340 nm. The reaction mixture included sample, 50 mM Tris-MES, pH 7.0, 2 mM KCN, and 150 μM NAD(P)H in a total volume of 2.5 ml at 37° C. with stirring. A millimolar extinction coefficient of 6.22 was used to determine NAD(P)H disappearance.

Assay [2] relates to age-related NOX (arNOX). Description: NOX assay with human mammary epithelial (non-cancer) MCF-10A cells: arNOX. As to conditions: 100 μM AgO added in 1.7% phosphoric acid; late passage MCF-10A cells. In kind it is cell-based. As to the method: (§2) FIG. 6 is as for FIG. 5 except that the assay was with 10^6 human mammary epithelial (non-cancer) MCF-10A cells. These cells lacked tNOX as their surface and contained predominantly a constitutive CNOX (single arrows) which was not inhibited by the 100 μM AgO added in 1.7% phosphoric acid. The MCF-10A cells were late passage cells and contained, as well, an age-related NOX (arNOX) with a period length of 26 minutes. This activity was inhibited by the AgO as shown in Panel B.
(§3) Growth of cells. Cells were grown in culture in a humidified atmosphere of 5% CO2 in air at 37° C. Media were renewed every 2 to 3 days. HeLa (ATCC CCL2) cells were grown in 175-cm^2 flasks in Minimal Essential Medium (Gibco), pH 7.4 at 37° with 10% fetal bovine serum (heat-inactivated), plus 50 mg/L gentamycin sulfate (Sigma). Cells were harvested by scraping and taken up in 140 mM NaCl, 5 mM KCl, 0.7 mM Na2HPO4 and 25 mM Tris, pH 7.4, to a final cell concentration of 0.1 g wet weight (gww) per mL. […]
(§4) Spectrophotometric assay of NADH Oxidase. NAD(P)H oxidase activities were measured using paired Hitachi U3210 spectrophotometers over successive 5-minutes intervals (two to four or more at low inhibitory concentrations) at 37° C. The activity was determined as the disappearance of NAD(P)H measured at 340 nm. […]

In assay [3] the test system is constitutive CNOX. Description: NOX assay with solubilized soybean plasma membranes. It counts as biochemical, soybean (Glycine max). As to conditions: plasma membranes solubilized in 0.1% Triton X-100 overnight. As to the method: FIG. 7 is similar to FIG. 6 except that plasma membranes isolated from etiolated hypocotyls (stems) of soybean (Glycine max) were the enzyme source. The plasma membranes were solubilized in 0.1% Triton X-100 overnight prior to assay. The soybean plasma membranes contain only a constitutive CNOX which is unresponsive to AgO.
as §1

In assay [4] the target is T2, tNOX (Homo sapiens, UniProt Q16206).
T2 sequence (Q16206 1-610): T1 sequence (Q16206 1-610)
As to the kind of experiment: NOX assay with human mammary adenocarcinoma (BT-20) cells: tNOX. It counts as cell-based. On the set-up: endogenous in cells. The following applies: 100 μM AgO; 2×10^6 BT-20 cells. As to the method:
(§5) FIG. 5 presents results from an assay using 2×10^6 human mammary adenocarcinoma (BT-20) cells carried out as described for FIG. 2. Panel A (no addition) received only the phosphoric acid (0.0017%).
as §3, with “mL. MCF-10A human mammary epithelial cells were cultured in a 1:1 mixture of Ham's F12 medium and Dulbecco's Modified Eagle's medium containing glutamine […], hydrocortisone (0.5 μg/mL), EGF (20 ng/mL), and 5% horse serum. Medium was renewed every 2-3 days.” for “mL.”
as §4

The target in assay [5] is T3, constitutive CNOX (Homo sapiens, UniProt Q8TC92).
T3 sequence (Q8TC92 1-643): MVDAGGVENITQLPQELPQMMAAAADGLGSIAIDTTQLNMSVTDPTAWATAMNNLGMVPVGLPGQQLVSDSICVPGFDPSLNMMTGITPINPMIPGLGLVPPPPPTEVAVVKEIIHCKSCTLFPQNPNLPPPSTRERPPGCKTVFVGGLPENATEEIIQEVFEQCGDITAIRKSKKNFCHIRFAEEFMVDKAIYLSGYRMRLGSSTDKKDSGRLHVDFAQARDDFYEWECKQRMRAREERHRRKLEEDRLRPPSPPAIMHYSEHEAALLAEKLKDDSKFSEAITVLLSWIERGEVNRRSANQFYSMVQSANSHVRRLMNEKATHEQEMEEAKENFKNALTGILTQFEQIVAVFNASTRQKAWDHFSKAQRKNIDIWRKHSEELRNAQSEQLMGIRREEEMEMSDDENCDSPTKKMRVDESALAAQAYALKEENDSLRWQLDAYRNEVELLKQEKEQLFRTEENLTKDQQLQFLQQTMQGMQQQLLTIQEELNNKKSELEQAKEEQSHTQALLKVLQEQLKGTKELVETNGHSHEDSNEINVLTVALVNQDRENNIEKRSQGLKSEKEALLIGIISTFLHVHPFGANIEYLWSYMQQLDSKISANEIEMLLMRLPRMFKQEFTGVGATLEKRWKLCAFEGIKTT
As to the kind of experiment: NOX assay with human mammary adenocarcinoma (BT-20) cells: CNOX. As to conditions: 100 μM AgO; 2×10^6 BT-20 cells. On the set-up: endogenous in cells. It counts as cell-based. How it is done:
as §5
as §3, with “mL. MCF-10A human mammary epithelial cells were cultured in a 1:1 mixture of Ham's F12 medium and Dulbecco's Modified Eagle's medium containing glutamine […], hydrocortisone (0.5 μg/mL), EGF (20 ng/mL), and 5% horse serum. Medium was renewed every 2-3 days.” for “mL.”
as §4

For assay [6], the target named is T2, tNOX. Description: NOX (NADH oxidase) assay of solubilized ECTO-NOX activities released from the surface of HeLa cells: tNOX. It counts as biochemical. On the set-up: solubilized ECTO-NOX activities released from the surface of HeLa cells by treatment at pH 5; endogenous in cells; host or cells: HeLa S cells, cell-free pH 5 extract. As to the method: (§6) FIG. 2 is similar to FIG. 1 except that a preparation of solubilized ECTO-NOX activities released from the surface of HeLa cells by treatment at pH 5 (del Castillo-Olivares et al., Arch. Biochem. Biophys. 358: 125-140, 1998) was used as the enzyme source. The AgO was dissolved in DMSO added at a final concentration of AgO of 1 mM. The final concentration of DMSO added in both A and B after 45 minutes was 0.1%. The assays were then continued for and additional 45 minutes. The HeLa extracts contain both the constitutive CNOX (single arrows denoting a 24 minutes period length) and two activity maxima separated by 6 minutes and labeled (1) and (2) which are tNOX (double arrows). With addition of AgO, both tNOX activities are inhibited while the constitutive CNOX remain unaffected. Values are based on three experiments and report means±standard deviations to establish statistical reliability of the data.
FIG. 3 represents the response of total NOX (NADH oxidase) activity of the preparation of FIG. 2 as a function of the logarithm of AgO concentration. The AgO was dissolved in 1.7% phosphoric acid and the dilutions were prepared in water. […] The EC50 of tNOX inhibition was estimated to be about 5 μM.
as §1
Preparation of HeLa Cells and Cell-Free Extracts. HeLa S cells were collected by centrifugation and shipped frozen in 0.1 M sodium acetate, pH 5, in a ratio of 1 mL of packed cell volume to 1 mL of acetate (Cellex Biosciences). The cells were thawed at room temperature, resuspended, and incutated at 37° for 1 hr to release the protein. […]

Assay [7] deals with T3, constitutive CNOX. As to the kind of experiment: NOX (NADH oxidase) assay of solubilized ECTO-NOX activities released from the surface of HeLa cells: CNOX. On the set-up: solubilized ECTO-NOX activities released from the surface of HeLa cells by treatment at pH 5; endogenous in cells; host or cells: HeLa S cells, cell-free pH 5 extract. It counts as biochemical. As to the method:
as §6
FIG. 3 represents the response of total NOX (NADH oxidase) activity of the preparation of FIG. 2 as a function of the logarithm of AgO concentration. […]
as §4

In assay [8] the target is T3, constitutive CNOX. Description: NOX assay with human mammary epithelial (non-cancer) MCF-10A cells: CNOX. It counts as cell-based. On the set-up: solubilized ECTO-NOX activities released from the surface of HeLa cells by treatment at pH 5; endogenous in cells; host or cells: HeLa S cells, cell-free pH 5 extract. The following applies: 100 μM AgO added in 1.7% phosphoric acid; 10^6 MCF-10A cells. As to the method: as §2, §3, §4

Assay [9] concerns aging-related isoform (arNOX). As to conditions: previous findings described in the background; cited from earlier work.
[10] abbreviates: AgO dissolved in DMSO, final concentration 1 mM, added after 45 minutes.

What is called EC50 is the concentration that produces a half-maximal response. In the case of `[O]=[Ag]` [AgO, silver (II) oxide], the “inhibition of recombinant tNOX NADH oxidase activity” value in [1] is given as “inhibited completely”. The “inhibition of age-related NOX (arNOX) activity” value in assay [2] is on record as “inhibited”. Also, the “response of constitutive CNOX to AgO” value in assay [3] is recorded as “unresponsive”. The “inhibition of the two activity maxima associated with tNOX” value in assay [4] is reported as “inhibited”. The “effect on constitutive CNOX” value in [5] is given as “without effect”. Also, in [6] (AgO concentration of 100 μM (10^−4M)), the “inhibition of tNOX” value is on record as “completely inhibited”. Moreover, the EC50 in [6] (AgO dissolved in 1.7% phosphoric acid, dilutions in water, estimated from total NOX activity, read-out: EC50 of tNOX inhibition) was ~5 µM. In addition, the “inhibition of tNOX activities” value in assay [6] (setting [10]) is given as “inhibited”. Further, the “inhibition of constitutive CNOX” value in assay [7] (AgO concentration series in 1.7% phosphoric acid/water) and in [8] was “not inhibited” each time. In addition, in assay [7] (setting [10]), the “effect on constitutive CNOX activity” value is reported as “unaffected”.

Consider `COC1=C(OC)C(=O)C(C/C=C(\C)CC/C=C(\C)CC/C=C(\C)CC/C=C(\C)CC/C=C(\C)CC/C=C(\C)CC/C=C(\C)CC/C=C(\C)CC/C=C(\C)CCC=C(C)C)=C(C)C1=O` [coenzyme Q], for which the “effect on generation of superoxide by arNOX” value in [9] is on record as “inhibition”.
